Patent US4794114A, “Inhibition of interleukin-1 production by monocytes and/or macrophages” (SmithKline Beckman Corporation, priority 1987, dated 1988)
Where two headings read alike, the source gives them in different places.

How the values were obtained:
[1] = tested on: alpha interferon; test: alpha interferon (other inducible proteins) production; format: cell-based
[2] = tested on: A375 melanoma cells; test: tumoricidal activity of LPS-treated human monocytes in the kill of A375 melanoma cells; format: cell-based; conditions: 10^-5 to 10^-8 M
[3] = tested on: splenic adherent cells; test: adjuvant-induced arthritis in the rat: % splenic adherent cells; format: in vivo; conditions: mg/kg: Compound 1 60, indomethacin 2.0, prednisolone 10, methotrexate 0.3, D-penicillamine 50
Protocol: (§1) Adjuvant-induced arthritis in the rat is a model of systemic inflammation with characteristics similar to rheumatoid arthritis in man. […] This model was employed to assess the effect of Compound 1 in vivo on this elevated IL-1 production. Briefly, rats were injected on day 0 with Freund's complete adjuvant in the right hind leg. Drugs were prepared as a suspension in tragacanth and administered daily per os either prophylactically (days 1 to 16) or therapeutically in a short-term modality (days 14 to 16). In all cases, final administration of drug occurred at 3 hours prior to sacrifice. Spleens were removed from these rats and the adherent cells were assessed for their ability to produce IL-1 in vitro in response to stimulation by LPS.
(§2) PROPHYLACTIC TREATMENT: Drugs were administered daily p.o. as a suspensio
(§3) in tragacanth from day 1 to day 16. Final dose given 3 hrs before
(§4) TREATMENT: Drugs were administered daily p.o. as above from
(§5) day 14 to day 16. Final dose given 3 hrs before sacrifice.
(§6) ***P < 0.01 Indomethacin 2.0 mg/kg
(§7) **P < 0.05 Compound 1 60 mg/kg
(§8) *P < 0.10 Prednisolone 10 mg/kg
(§9) D-Penicillamine 50 mg/kg

[4] = immunosuppressive effect
[5] = tested on: PGE2; test: in vitro prostaglandin (PGE2) synthesis by LPS-stimulated human monocytes, RIA; format: cell-based
Protocol: (§10) Bacterial lipopolysaccharide (LPS) was used to induce IL-1 production by human peripheral blood monocytes. IL-1 activity was measured by its ability to stimulate a Interleukin 2 (IL-2) producing cell line (EL-4) to secrete IL-2, in concert with A23187 ionophore, according to the method of Simon et al., J. Immunol. Methods, 84, 85, (1985). Human peripheral blood monocytes were isolated and purified from either fresh blood preparations from volunteer donors, or from blood Bank buffy coats, according to the procedure of Colotta et al., J. Immunol., 132, 936 (1984). 1×10^6 of such monocytes are plated in 24-well plates at a concentration of 2 million/ml per well. The cells were allowed to adhere for 2 hours, after which time non-adherent cells were removed by gentle washing. Test compounds were then added to the cells for 1 hour (hr) before the addition of lipopolysaccharide (10 ng/ml unless otherwise noted), and the cultures were incubated at 37° C. for an additional 24 hours. At the end of the incubation period, culture supernatants were removed and clarified of cells and all debris. Culture supernatants were immediately assayed for IL-1 biological activity as well as prostaglandin and/or leukotriene concentrations by radioimmunoassay.
^(c) PGE2 was assayed using an RIA kit.

[6] = tested on: adjuvant-induced arthritis in the rat; test: adjuvant-induced arthritis in the rat: right leg paw edema; format: in vivo; conditions: mg/kg: Compound 1 60, indomethacin 2.0, prednisolone 10, methotrexate 0.3, D-penicillamine 50
Protocol: as §1, §2, §3, §4, §5, §6, §7, §8, §9

[7] = tested on: IL-1 production by human monocytes; test: in vitro IL-1 production by LPS-stimulated human peripheral blood monocytes (EL-4 readout); format: cell-based; conditions: for inhibition at 1 µM: 10^-6 M; for inhibition at 0.1 µM: 10^-7 M
Protocol: The effects of antiinflammatory/antiarthritic drugs of different classes, including Compound 1 on the in vitro production of IL-1 by human monocytes was examined.
as §10
^(a) All compounds, except chloroquine, were dissolved in absolute
ethanol at 10^-2 M, which was subsequently diluted further in tissue
assay system at doses tested. Furthermore, test samples were dialyzed
prior to testing in the IL1 assay.
In order to elucidate the mechanism by which Compound 1 mediates its anti-inflammatory activity, the ability of this compound and two closely related analog metabolites, (i.e., the analogs of Compound 1 wherein X is S(0)n and n is 1 or 2) to inhibit human IL-1 production in vitro was evaluated according to the method of Example 1. Briefly, 1×10^6 human peripheral blood monocytes were plated in 24-well plates and allowed to adhere for 1 hr at 37° C. The above compounds were added to a final concentration of 10^-5 M to 10^-8 M. The monocytes were stimulated to produce IL-1 with 1 ng/ml LPS after a 1 hr pretreatment of the cells with the respective compounds.
The inhibitory effect of additional compounds of Formula (I) on the in vitro production of IL-1 production of IL-1 by human monocytes was determined according to the procedure of Examples 1 and 2.

[8] = tested on: EL-4/CTLL assay; test: direct effect on IL-1 standard in EL-4/CTLL readout assay; format: cell-based
Protocol: as §10
Inhibition of IL-1 production by Compound 1 is not due to a carryover effect of the drug on the cells sed in the IL-1 readout assay. […]

[9] = tested on: monocytes; test: in vitro; format: cell-based, human
Protocol: as §10
^(b) At doses at or above 10^-5 M, this compound exerted some

[10] = tested on: IL-1 production by splenic adherent cells; test: adjuvant-induced arthritis in the rat: IL-1 production by LPS-stimulated splenic adherent cells; format: in vivo; conditions: for IL-1 Production (splenic adherent cells), % normal control: mg/kg: Compound 1 60, indomethacin 2.0, prednisolone 10, methotrexate 0.3, D-penicillamine 50
Protocol: as §1, §2, §3, §4, §5, §6, §7, §8, §9

[11] = tested on: endotoxin shock in C57B1/6 mice; format: in vivo, mouse; conditions: mouse, in vivo
Protocol: Mice are very resistant to the lethal effects of bacterial lipopolysaccharides (LPS). D-Galactosamine (D-GALN) induces a high degree of sensitization to the lethal effects of LPS in mice and other experimental animals. [See, Galanos et al., Proc. Natl. Acad Sci. USA., 76, 5939 (1979)]. In mice, depending on the strain and age, the sensitivity to endotoxin can be increased many thousand-fold.
A number of preliminary experiments were carried out to establish this model of lethal endotoxin shock.

[12] = tested on: human peripheral blood lymphocytes; test: lectin-stimulated mitogenesis of human peripheral blood lymphocytes; format: cell-based
[13] = tested on: IL-2; test: IL-2 production or response; format: cell-based
[14] = prophylactic, daily p.o. days 1-16
[15] = therapeutic, daily p.o. days 14-16
[16] = Homo sapiens, Monocyte, wide range of LPS, read-out: inhibition of IL-1 production
[17] = Homo sapiens, Monocyte, read-out: % Inhibition IL-1

**Q.** Which results are given for `Fc1ccc(-c2nc3n(c2-c2ccncc2)CCS3)cc1` [Compound 1]?
**A.** effect on other inducible proteins such as alpha interferon [1]: not effected; effect on monocyte tumoricidal activity [2]: did not effect that biological activity; % Adherent Cells (splenic), % normal control [3, 14]: 98 ± 29 % normal control; % Adherent Cells (splenic), % normal control [3, 15]: 216 ± 137 % normal control; immunosuppressive effect [4]: not immunosuppressive; inhibition at 10 µM ([5]; Homo sapiens, Monocyte, 10^-5 M, read-out: % Inhibition PGE2): 99%; inhibition at 1 µM ([5]; Homo sapiens, Monocyte, 10^-6 M, read-out: % Inhibition PGE2): 94%; inhibition at 0.1 µM ([5]; Homo sapiens, Monocyte, 10^-7 M, read-out: % Inhibition PGE2): 79%; inhibition of prostaglandin synthesis ([5]; submicromolar range (10^-7 M)): greater than 80%; Right leg paw edema, % normal control [6, 14]: 134 ± 9 % normal control; Right leg paw edema, % normal control [6, 15]: 159 ± 7 % normal control; dose dependence of IL-1 production inhibition [7]: dose dependent; inhibition of IL-1 production [7]: inhibits IL-1 production; relative potency against the two analogs ([7]; 1 ng/ml LPS): slightly more potent than the two analogs tested; IC50 ([7]; Homo sapiens, Monocyte, 1 ng/ml LPS, 1 hr pretreatment): 250 nM; inhibition at 10 µM ([7]; Homo sapiens, Monocyte, 10^-5 M, read-out: % Inhibition IL-1): 99%; inhibition at 1 µM [7, 16]: ~80%; inhibition at 1 µM ([7]; Homo sapiens, Monocyte, Table 3, read-out: % Inhibition @ 10^-6 M): 70%; inhibition at 1 µM [7, 17]: 96%; inhibition at 0.1 µM [7, 16]: ~40%; inhibition at 0.1 µM [7, 17]: 88%; inhibition of IL-1 production ([7]; submicromolar range (10^-7 M)): greater than 80%; inhibition of IL-1 production induced by a variety of activators ([7]; variety of activators): inhibits IL-1 production induced by a variety of activators; effect on the IL-1 assay system ([8]; 10^-5 or higher): had an effect on the assay system; direct effect on the IL-1 assay ([8]; lower doses / doses tested): no direct effect on the IL-1 assay; nonspecific toxic effect on other functions of activated monocytes [9]: does not exert a nonspecific toxic effect on other functions of activated monocytes; decrease in IL-1 production ([10]; prophylactic administration): more dramatic decrease in IL-1 production than indomethacin which resulted in nearly complete normalization of this parameter; IL-1 Production (splenic adherent cells), % normal control [10, 14]: 139 ± 28 % normal control; IL-1 Production (splenic adherent cells), % normal control [10, 15]: 392 ± 129 % normal control; effect in adjuvant arthritic rats ([10]; therapeutic, short-term treatment): no effect; protection from lethal effects of LPS/GALN [11]: protected the animals from the lethal effects of LPS/GALN; inhibition of lectin-stimulated mitogenesis [12]: does not inhibit lectin-stimulated mitogenesis; inhibition of IL-2 production ([13]; IL-2 production): does not inhibit either IL-2 production or response; inhibition of IL-2 response ([13]; IL-2 response): does not inhibit either IL-2 production or response
